Series [1] relates to B10-Dmd-KO (Mdx) mice. Briefly: PK/PD detection of mouse model with Dmd (Mdx) gene mutation, plasma CK. The class given is in vivo. Conditions: oral. From the text: Experimental objective: Bl0-Dmd-KO (Mdx) mice are DMD function-deficient mice caused by frameshift mutations in the Dmd gene. […] This study has investigated the effects on CK and TNNI2 in the plasma of Mdx mice upon administration of compounds.
Experimental animal: B10-Dmd-KO (C57BL/10ScSnJGpt-Dmdem3Cd4/Gpt), male, 5-7 weeks old, weight 28-30 g, supplier. Gempharmatech Co., Ltd.;
• 1) Running training (D-5): Mdx mice underwent running training in batches. The training parameters were set as three time periods, i.e., the initial speed of 4 m/min for 2 min, then 8 m/min for 8 min, and finally 12 m/min for 30 min, a total of 40 min; • 2) Gripping strength test (D-2): each round was measured three times, and three rounds were performed; • 3) Grouping (DO): the animals were anesthetized by inhalation of isoflurane (concentration: 5%, gas flow rate: 1 L/min), and then a capillary tube was used to collect blood (about 150 μL) via orbital venous sinus into a 0.6 mL centrifuge tube containing EDTA anticoagulant, the plasma wad separated, and the CK value was detected, which was used as the basic value for grouping; • 4) Administration, grasping, and blood collection (D1): The compounds were dissolved in the vehicle 5% DMA+5% HS-15+90% Saline, then orally administered to the mice, and then the grip strength test was conducted (three tests per round for three rounds). […] A capillary tube was used to collect blood (>300 μL) via orbital venous sinus into a 0.6 mL centrifuge tube containing EDTA anticoagulant, and then the animals were euthanized to collect the tibialis anterior muscle (left leg), soleus muscle (both legs) and cardiac muscle, which were weighed and recorded, placed in a homogenization tube and quickly frozen in liquid nitrogen, then stored at −80° C.
Sample processing: After the whole blood anticoagulated with EDTA was centrifuged at 3000 rpm and 4° C. for 10 min, the […] was collected and subpackaged. The separated […] was subjected to a biochemical analyzer (Fully automatic biochemical analyzer Roche C311) to detect the CK value and TNN12 value (Mouse TNNI2 Elisa Kit, ABBEXA, E2207370Y); The […] concentration of the compound and the drug concentration in tibialis anterior muscle, soleus muscle and cardiac muscle were measured by LC/MS instrument.

The test system of series [2] is rabbit skeletal muscle myosin. The experiment in a line: Inhibition of hydrolysis of ATP by rabbit skeletal muscle myosin. In kind it is biochemical. The essentials:
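Actin-activated ATPase: F-actin plus rabbit skeletal myosin II with compound in Tris-HCl pH 7.5/KCl/EGTA/MgCl2, started with ATP (3 mM working stock) and run 60 min at 37 °C. Released Pi measured by CytoPhos absorbance at 650 nm against a phosphate standard curve; IC50 fitted from inhibition relative to uninhibited myosin.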

Series [3] in a line: Pharmacokinetic experiment in mice. The class given is in vivo. Particulars: male, C57, po; mouse plasma, i.g. (10 mg/kg). The procedure: 1. Experimental animals: Male C57 mice, 22-25 g, 6 mice/compound. Purchased from Chengdu Ddossy Experimental Animals Co., Ltd.
2. Experimental design: On the day of the experiment, 12 C57 mice were randomly grouped according to their body weight. The animals were fasted with water available for 12 to 14 h one day before the administration and were fed 4 h after the administration.
Before and after the administration, 0.06 mL of blood was taken from the orbit of the animals under isoflurane anesthesia and placed in an EDTAK2 centrifuge tube. The blood was centrifuged at 5000 rpm and 4° C. for 10 min to collect the plasma. The blood collection time points for the intravenous group and intragastric administration group were: 0 m, 5 m, 15 min, 30 min, 1 h, 2 h, 4 h, 7 h and 24 h. Before analysis and detection, all samples were stored at −80° C., and a quantitative analysis of samples was performed using LC-MS/MS.

The target of series [4] is T1, CYP2C19 (Homo sapiens, UniProt P33261).
T1 construct: incubated with human liver microsomes and test compounds of different concentrations; from tissue; host or cells: human liver microsomes
T1 sequence (P33261 whole entry): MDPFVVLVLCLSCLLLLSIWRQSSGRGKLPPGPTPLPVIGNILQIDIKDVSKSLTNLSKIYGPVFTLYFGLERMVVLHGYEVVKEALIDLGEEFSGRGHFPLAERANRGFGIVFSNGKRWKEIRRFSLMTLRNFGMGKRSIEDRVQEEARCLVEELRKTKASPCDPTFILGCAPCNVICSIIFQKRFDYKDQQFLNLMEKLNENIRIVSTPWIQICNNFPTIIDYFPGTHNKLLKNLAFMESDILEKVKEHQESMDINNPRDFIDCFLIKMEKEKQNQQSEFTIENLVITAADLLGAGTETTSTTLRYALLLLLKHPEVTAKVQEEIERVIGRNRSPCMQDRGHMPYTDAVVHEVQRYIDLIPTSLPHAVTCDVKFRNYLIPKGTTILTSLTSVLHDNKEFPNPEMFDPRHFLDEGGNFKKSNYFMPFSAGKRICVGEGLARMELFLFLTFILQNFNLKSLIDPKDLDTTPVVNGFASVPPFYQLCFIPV
Briefly: CYP450 enzyme inhibition, human liver microsomes, CYP2C19. In kind it is in vitro ADME. The essentials: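 Human liver microsomes were incubated with isoform-specific probe substrates and a range of test compound concentrations, with the reaction started by NADPH. Probe metabolites were quantified by LC-MS/MS to derive enzyme activity, and IC50 values were calculated per isoform.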

Setting [5] is: inhibition of hydrolysis of ATP, class symbols, read-out: Rabbit skeletal muscle myosin (IC50).
Setting [6] is: read-out: IC50 for inhibition of hydrolysis of ATP by rabbit skeletal muscle myosin.
[7] abbreviates: 10 mpk, QD administration for 7 days.

Read-outs that look alike come from different tables or passages of the source.

With `O=c1ccc(-c2cnc(OCC(F)(F)F)nc2)nn1Cc1ccc2c(c1)CCC2` [Compound 57], the “Inhibition rate of CK values (sampled 24 h after (last) dose)” value (from here on “Inhibition rate of CK values”) in series [1] (10 mpk single administration) came to 108.2%. Also, the figures for the IC50 in series [2] (setting [5]) and in series [2] (setting [6]) were under 2.5 µM and 0.33 µM, respectively.
On to `O=C1CCc2ccc(Cn3nc(-c4cnc(OCC(F)(F)F)nc4)ccc3=O)cc21` [Compound 88], for which the AUC(0-t) (usually the area under the concentration-time curve up to a stated or last time point) in series [3] stood at 2320 ng·h/mL. Further, the peak level in series [3] (Cmax) was 324 ng/mL. Moreover, the half-life (in general, how long it takes for the measured level to halve) in series [3] was 102 h. Moreover, the “Inhibition rate of CK values” value in series [1] (setting [7]) amounted to 91.6%. Moreover, the figures for the IC50 in series [4], in series [2] (setting [5]) and in series [2] (setting [6]) were over 30 µM, under 2.5 µM and 0.8 µM, respectively.
Take `O=C1CCc2ccc(Cn3nc(-c4cnc(OCC(F)F)nc4)ccc3=O)cc21` [Compound 131]: the half-life in series [3] was 91.1 h. Moreover, the “Inhibition rate of CK values” value in series [1] (setting [7]) is listed as 94.1%. Moreover, the IC50 (usually the concentration that gives 50% inhibition) was over 30 µM in series [4], under 2.5 µM in series [2] (setting [5]) and 0.4 µM in series [2] (setting [6]).
For the molecule `O=C1CCc2ccc(Cn3nc(-c4cnc(OC5CC(F)(F)C5)nc4)ccc3=O)cc21` [Compound 141], the IC50 in series [4] was over 30 µM; in series [2] (setting [5]), under 2.5 µM; in series [2] (setting [6]), 0.8 µM.
Regarding `O=C1CCc2ccc(Cn3nc(-c4cnc(O[C@@H]5CCOC5)nc4)ccc3=O)cc21` [Compound 149], the half-life in series [3] was 52.3 h. Also, the values for the IC50 in series [4] and in series [2] (setting [5]) were over 30 µM and under 2.5 µM, respectively.
In turn, `O=C1CCc2ccc(Cn3nc(-c4cnc(O[C@H]5CCOC5)nc4)ccc3=O)cc21` [Compound 150] showed a half-life in series [3] of 40.7 h. Moreover, the IC50 in series [2] (setting [5]) is under 2.5 µM.
Regarding `O=C1CCc2ccc(Cn3nc(-c4cnc(Oc5cncc(Cl)c5)nc4)ccc3=O)cc21` [Compound 151], the IC50 in series [4] is over 30 µM; in series [2] (setting [5]) it was under 2.5 µM; in series [2] (setting [6]), 0.7 µM.
Regarding `N#CC1(COc2ncc(-c3ccc(=O)n(Cc4ccc5c(c4)C(=O)CC5)n3)cn2)CC1` [Compound 158], the results for the IC50 in series [4] and in series [2] (setting [5]) were over 30 µM and under 2.5 µM, respectively.
For `O=C1CCc2ccc(Cn3nc(-c4cnc(OC5COCC5(F)F)nc4)ccc3=O)cc21` (centres unmarked) [Compound 164] the same measures were over 30 µM and under 2.5 µM.
In the same order, the values of `O=C1CCc2c(F)cc(Cn3nc(-c4cnc(O[C@H]5CCOC5)nc4)ccc3=O)cc21` [Compound 165] are over 30 µM and 2.5 to 20 µM.
Regarding `O=C1CCc2c(F)cc(Cn3nc(-c4cnc(OCC(F)F)nc4)ccc3=O)cc21` [Compound 167], the IC50 was over 30 µM in series [4], under 2.5 µM in series [2] (setting [5]) and 0.27 µM in series [2] (setting [6]).

The values are drawn from patent US20260217683A1, “PYRIDAZINONE HETEROCYCLIC COMPOUND MYOSIN II INHIBITOR AND USE THEREOF” (Xizang Haisco Pharmaceutical Co., Ltd., priority 2023, published 2026).
